Data set [1] concerns Mus musculus. Nature of the data set: Immunostimulatory activity in ICR mouse assessed as induction of MIP-1beta release at 100 uM, iv after 2 hrs by ELISA. The format is functional, organism-based.
Data set [2] relates to Mus musculus. The experiment in a line: Immunostimulatory activity in ICR mouse assessed as induction of IL-6 release at 100 uM, iv after 2 hrs by ELISA. The format is functional, organism-based.
The test system of data set [3] is Macrophage. The experiment in a line: Immunostimulatory activity in ICR mouse macrophage assessed as induction of phagocytic activity at 50 uM after 2 hrs by fluorescent microsphere assay. It is filed as functional, cell-based.
Data set [4] relates to Macrophage. Nature of the data set: Immunostimulatory activity in ICR mouse macrophage assessed as induction of phagocytic activity measuring MIP-1beta secretion at 50 uM after 2 hrs by ELISA. The format is functional, cell-based.
The subject of data set [5] is Macrophage. The experiment in a line: Immunostimulatory activity in ICR mouse macrophage assessed as induction of phagocytic activity measuring IL-6 secretion at 50 uM after 2 hrs by ELISA. The format is functional, cell-based.
For data set [6], the system named is THP-1. Nature of the data set: Immunostimulatory activity in human THP1 cells assessed as induction of MIP-1beta release at 100 uM after 3 hrs by ELISA. It is filed as functional, cell-based.
For data set [7], the system named is DLD-1. The experiment in a line: Immunostimulatory activity in human DLD1 cells assessed as induction of MIP-1beta release at 100 uM after 3 hrs by ELISA. It is filed as functional, cell-based.
In data set [8] the test system is A549. Nature of the data set: Immunostimulatory activity in human A549 cells assessed as induction of MIP-1beta release at 100 uM after 3 hrs by ELISA. It is filed as functional, cell-based.
The nature of data set [9]: Antitumor activity against mouse B16F0 cells allografted in C57BL/6 mouse assessed as inhibition of lung metastasis at 100 ug, iv administered at 7-day interval over 14 days prior to tumor implantation measured on day 28 relative to control. The format is functional.
Data set [10] deals with Mus musculus. The experiment in a line: Toxicity in mouse assessed as mortality at 50 mg, ip administered at 7-day interval. The format is organism-based. Conditions: in vivo.
In data set [11] the test system is Mus musculus. The experiment in a line: Antitumor activity against mouse B16F0 cells allografted in C57BL/6 mouse assessed as inhibition of lung metastasis at 1000 ug, iv administered at 7-day interval over 14 days prior to tumor implantation measured on day 28 relative to control. It is filed as functional.
Data set [12] has as its system Salmonella typhimurium. Nature of the data set: Genotoxicity in Salmonella typhimurium TA98 after 30 mins by Ames test. It is filed as toxicity, organism-based. Conditions: salmonella enterica subsp. enterica serovar typhimurium, 0.5 h.
Data set [13] can be described thus: Antitumor activity against mouse B16F0 cells allografted in C57BL/6 mouse assessed as inhibition of lung metastasis at 100 ug, iv administered at 7-day interval over 14 days prior to tumor implantation measured on day 21 relative to control. The format is functional.
Data set [14] deals with THP-1. The experiment in a line: Cytotoxicity against human THP1 cells assessed as induction of TNF-alpha release. It is filed as cell-based.
For data set [15], the system named is Mus musculus. Nature of the data set: Antitumor activity against mouse B16F0 cells allografted in C57BL/6 mouse assessed as inhibition of lung metastasis at 500 ug, iv administered at 7-day interval over 14 days prior to tumor implantation measured on day 28 relative to control. The format is functional.

The source made the active and inactive calls. The calls are words filed in the database; no cut-off is given here.

Consider `CCCCCCCCCCCCCCC(CCCCCCCCCCCCCC)C(=O)OC[C@H]1O[C@H](O[C@H]2O[C@H](COC(=O)C(CCCCCCCCCCCCCC)CCCCCCCCCCCCCC)[C@@H](O)[C@H](O)[C@H]2O)[C@H](O)[C@@H](O)[C@@H]1O`, for which the result in [1] and in [2] was Active.

On to `CCCCCCCCCCCC(CCCCCCCCCCC)CC(=O)OC[C@H]1O[C@H](O[C@H]2O[C@H](COC(=O)CC(CCCCCCCCCCC)CCCCCCCCCCC)[C@@H](O)[C@H](O)[C@H]2O)[C@H](O)[C@@H](O)[C@@H]1O`, for which the result in data set [1] and in data set [2] was Active.

`CCCCCCCCCC(CCCCCCCCC)CCC(=O)OC[C@H]1O[C@H](O[C@H]2O[C@H](COC(=O)CCC(CCCCCCCCC)CCCCCCCCC)[C@@H](O)[C@H](O)[C@H]2O)[C@H](O)[C@@H](O)[C@@H]1O`: the outcome in data set [3] was inactive.

On to `CCCCCCCCCCCC(=O)O`, for which the result in data set [3] was inactive.

As for `CCCCCCCCCCCC(CCCCCCCCCCC)C(=O)OC[C@H]1O[C@H](O[C@H]2O[C@H](COC(=O)C(CCCCCCCCCCC)CCCCCCCCCCC)[C@@H](O)[C@H](O)[C@H]2O)[C@H](O)[C@@H](O)[C@@H]1O`, the result in data set [1] and in data set [2] was Active.

With `CCCCCCCCCCCCCCCCC(CCCCCCCCCCCCCC)C(=O)OC[C@H]1O[C@H](O[C@H]2O[C@H](COC(=O)C(CCCCCCCCCCCCCC)CCCCCCCCCCCCCCCC)[C@@H](O)[C@H](O)[C@H]2O)[C@H](O)[C@@H](O)[C@@H]1O` (stereo not given in full), the result in [1], in data set [2] and in data set [3] was Active.

`CCCCCCCCCCCCC(CCCCCCCCCCCC)C(=O)OC[C@H]1O[C@H](O[C@H]2O[C@H](COC(=O)C(CCCCCCCCCCCC)CCCCCCCCCCCC)[C@@H](O)[C@H](O)[C@H]2O)[C@H](O)[C@@H](O)[C@@H]1O`: the outcome in [1] and in [2] was Active.

For the compound `CCCCCCCCCCCCCCC[C@@H](OC)[C@@H](CCCCCCCCCCCCCC)C(=O)OC[C@H]1O[C@H](O[C@H]2O[C@H](COC(=O)[C@H](CCCCCCCCCCCCCC)[C@@H](CCCCCCCCCCCCCCC)OC)[C@@H](O)[C@H](O)[C@H]2O)[C@H](O)[C@@H](O)[C@@H]1O`, the result in data set [4], in data set [5] and in data set [3] was Active.

`CCCCCCCCCCCCC(CCCCCCCCCCCC)CC(=O)OC[C@H]1O[C@H](O[C@H]2O[C@H](COC(=O)CC(CCCCCCCCCCCC)CCCCCCCCCCCC)[C@@H](O)[C@H](O)[C@H]2O)[C@H](O)[C@@H](O)[C@@H]1O`: the result in data set [1] and in data set [2] was Active.

Consider `CCCCCCCCC(CCCCCCCC)CC(=O)OC[C@H]1O[C@H](O[C@H]2O[C@H](COC(=O)CC(CCCCCCCC)CCCCCCCC)[C@@H](O)[C@H](O)[C@H]2O)[C@H](O)[C@@H](O)[C@@H]1O`, for which the result in [1] and in [2] was Active.

Consider `CCCCCCCCCCCCCC(CCCCCCCCCCCCC)CC(=O)OC[C@H]1O[C@H](O[C@H]2O[C@H](COC(=O)CC(CCCCCCCCCCCCC)CCCCCCCCCCCCC)[C@@H](O)[C@H](O)[C@H]2O)[C@H](O)[C@@H](O)[C@@H]1O`, for which the outcome in data set [1] and in data set [2] was Active.

Regarding `CCCCCCCCCCC(CCCCCCCCCC)C(=O)OC[C@H]1O[C@H](O[C@H]2O[C@H](COC(=O)C(CCCCCCCCCC)CCCCCCCCCC)[C@@H](O)[C@H](O)[C@H]2O)[C@H](O)[C@@H](O)[C@@H]1O`, the result in data set [6], in data set [7] and in data set [8] was inactive. The outcome in [1], in data set [2] and in data set [3] was Active.

On to `CCCCCCCCCCCCCC(CCCCCCCCCCCCC)C(=O)OC[C@H]1O[C@H](O[C@H]2O[C@H](COC(=O)C(CCCCCCCCCCCCC)CCCCCCCCCCCCC)[C@@H](O)[C@H](O)[C@H]2O)[C@H](O)[C@@H](O)[C@@H]1O`, for which the outcome in data set [1] and in [2] was Active.

Turning to `CCCCCCCCCC(CCCCCCCCC)CC(=O)OC[C@H]1O[C@H](O[C@H]2O[C@H](COC(=O)CC(CCCCCCCCC)CCCCCCCCC)[C@@H](O)[C@H](O)[C@H]2O)[C@H](O)[C@@H](O)[C@@H]1O` [VIZANTIN], the “inhibition (INH)” value in [9] is on record as 57%; in data set [11], 66%; in data set [13], over 98%; in [15], 62%. Besides, the result in [6], in [1], in data set [2] and in data set [3] was Active. Further, the Activity entry in data set [10], in [12] and in [14] was “Non-toxic” throughout. In addition, the outcome in [7] and in data set [8] was inactive.

As for `CCCCCCCCCCC(CCCCCCCCCC)CC(=O)OC[C@H]1O[C@H](O[C@H]2O[C@H](COC(=O)CC(CCCCCCCCCC)CCCCCCCCCC)[C@@H](O)[C@H](O)[C@H]2O)[C@H](O)[C@@H](O)[C@@H]1O`, the outcome in [1] and in data set [2] was Active.

As to `CCCCCCCCC(CCCCCCCC)CCC(=O)OC[C@H]1O[C@H](O[C@H]2O[C@H](COC(=O)CCC(CCCCCCCC)CCCCCCCC)[C@@H](O)[C@H](O)[C@H]2O)[C@H](O)[C@@H](O)[C@@H]1O`, the result in data set [3] was inactive.

In the case of `CCCCCCCCC(CCCCCCCC)C(=O)OC[C@H]1O[C@H](O[C@H]2O[C@H](COC(=O)C(CCCCCCCC)CCCCCCCC)[C@@H](O)[C@H](O)[C@H]2O)[C@H](O)[C@@H](O)[C@@H]1O`, the result in data set [1] and in data set [2] was Active.

With `CCCCCCCCCCCCCCCC(CCCCCCCCCCCCCCC)C(=O)OC[C@H]1O[C@H](O[C@H]2O[C@H](COC(=O)C(CCCCCCCCCCCCCCC)CCCCCCCCCCCCCCC)[C@@H](O)[C@H](O)[C@H]2O)[C@H](O)[C@@H](O)[C@@H]1O`, the result in data set [1] and in data set [2] was Active.

Regarding `CCCCCCCCCC(CCCCCCCCC)C(=O)OC[C@H]1O[C@H](O[C@H]2O[C@H](COC(=O)C(CCCCCCCCC)CCCCCCCCC)[C@@H](O)[C@H](O)[C@H]2O)[C@H](O)[C@@H](O)[C@@H]1O`, the result in data set [1] and in [2] was Active.

`CCCCCCCCCCCCCCC(CCCCCCCCCCCCCC)CC(=O)OC[C@H]1O[C@H](O[C@H]2O[C@H](COC(=O)CC(CCCCCCCCCCCCCC)CCCCCCCCCCCCCC)[C@@H](O)[C@H](O)[C@H]2O)[C@H](O)[C@@H](O)[C@@H]1O`: the result in data set [1] and in data set [2] was Active.

For `CCCCCCCCCCCCCCC[C@@H](O)[C@@H](CCCCCCCCCCCCCC)C(=O)OC[C@H]1O[C@H](O[C@H]2O[C@H](COC(=O)[C@H](CCCCCCCCCCCCCC)[C@H](O)CCCCCCCCCCCCCCC)[C@@H](O)[C@H](O)[C@H]2O)[C@H](O)[C@@H](O)[C@@H]1O`, the outcome in data set [6], in [7] and in [8] was inactive. The result in [1], in [2], in data set [4], in data set [5] and in [3] was Active. Moreover, in data set [11], the “inhibition (INH)” value is 41%.

Turning to `CCCCCCCCCCCCCCCCC(CCCCCCCCCCCCCCCC)C(=O)OC[C@H]1O[C@H](O[C@H]2O[C@H](COC(=O)C(CCCCCCCCCCCCCCCC)CCCCCCCCCCCCCCCC)[C@@H](O)[C@H](O)[C@H]2O)[C@H](O)[C@@H](O)[C@@H]1O`, the result in [1] and in data set [2] was Active.

Source of the values: ChEMBL document CHEMBL2311486, “Development of vizantin, a safe immunostimulant, based on the structure-activity relationship of trehalose-6,6'-dicorynomycolate” (J Med Chem, 2013).
